# Measurements reported in patent US9505710B2 (priority 2015, dated 2016).
# Where a name gives a salt, the structure may show the parent alone.
# Molecular target: BoNT/A LC1-429 (Clostridium botulinum, UniProt P0DPI1)
# Assay: biochemical
# Conditions: BoNT/A Ki (nM)
# Chain of BoNT/A LC1-429 (P0DPI1 1-429, added parts left off): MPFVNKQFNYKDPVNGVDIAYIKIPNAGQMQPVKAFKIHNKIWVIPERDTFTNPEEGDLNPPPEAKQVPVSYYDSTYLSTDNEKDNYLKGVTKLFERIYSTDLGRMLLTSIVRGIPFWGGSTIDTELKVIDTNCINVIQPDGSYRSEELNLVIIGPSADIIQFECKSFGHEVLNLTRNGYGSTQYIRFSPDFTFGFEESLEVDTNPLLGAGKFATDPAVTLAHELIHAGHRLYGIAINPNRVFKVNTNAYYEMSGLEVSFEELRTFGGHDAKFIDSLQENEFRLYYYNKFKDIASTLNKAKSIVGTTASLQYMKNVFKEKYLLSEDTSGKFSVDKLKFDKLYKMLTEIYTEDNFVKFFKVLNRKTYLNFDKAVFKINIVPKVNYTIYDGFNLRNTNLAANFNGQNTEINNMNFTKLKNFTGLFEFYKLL
row,Structure (SMILES),Ki [nM]
1,"CCO[C@H](CC(=O)NO)[C@H](Cc1ccc(Cl)cc1)c1ccc(-c2ccc[nH]2)cc1 [Example 3-25, (3R,4R)-4-(4-(1H-pyrrol-2-yl)phenyl)-5-(4-chlorophenyl)-3-ethoxy-N-hydroxypentanamide]",8
2,"CCO[C@H](CC(=O)NO)[C@H](Cc1ccc(Cl)cc1)c1ccc(-c2cccn2C(=O)OC(C)(C)C)cc1 [Example 3-24, tert-butyl 2-(4-((2R,3R)-1-(4-chlorophenyl)-3-ethoxy-5-(hydroxyamino)-5-oxopentan-2-yl)phenyl)-1H-pyrrole-1-carboxylate]",8.8
3,"CCO[C@H](CC(=O)NO)[C@H](Cc1ccc(Cl)cc1)c1ccc(N2CCNCC2)cc1 [Example 3-22, (3R,4R)-5-(4-chlorophenyl)-3-ethoxy-N-hydroxy-4-(4-(piperazin-1-yl)phenyl)pentanamide]",13.5
4,"CO[C@@H](CC(=O)NO)[C@H](Cc1ccc(F)cc1C)c1ccc(Br)cc1 [Example 2-3, (3S,4R)-4-(4-bromophenyl)-5-(4-fluoro-2-methylphenyl)-N-hydroxy-3-methoxypentanamide]",4860
5,"CCO[C@H](CC(=O)NO)[C@H](Cc1ccc(Cl)cc1)c1ccc(-n2ccnc2)cc1 [Example 3-29, (3R,4R)-4-(4-(1H-imidazol-1-yl)phenyl)-5-(4-chlorophenyl)-3-ethoxy-N-hydroxypentanamide]",3.6
6,O=C(CC[C@H](Cc1ccc(Cl)cc1)c1ccccc1)NO [Example 3-2],2700
7,"CO[C@H](CC(=O)NO)[C@H](Cc1ccc(Cl)cc1)c1ccc(F)cc1F [Example 6-20, (3R,4R)-5-(4-chlorophenyl)-4-(2,4-difluorophenyl)-N-hydroxy-3-methoxypentanamide potassium salt]",8.3
8,"CCO[C@H](CC(=O)NO)[C@H](Cc1ccc(Cl)cc1)c1ccc(Br)cc1 [Example 3-6, (3R,4R)-4-(4-bromophenyl)-5-(4-chlorophenyl)-3-ethoxy-N-hydroxypentanamide]",2 ± 0.42
9,"CCO[C@H](CC(=O)NO)[C@H](Cc1ccc(CO)cc1)c1ccc(F)cc1 [Example 1-9, (3R,4R)-3-ethoxy-4-(4-fluorophenyl)-N-hydroxy-5-(4-(hydroxymethyl)phenyl)pentanamide]",299
10,"CO[C@H](CC(=O)NO)[C@H](Cc1ccc(Cl)cc1C)c1ccc(F)cc1 [Example 6-4, (3R,4R)-5-(4-chloro-2-methylphenyl)-4-(4-fluorophenyl)-N-hydroxy-3-methoxypentanamide]",1.48
11,"CCO[C@H](CC(=O)NO)[C@H](Cc1ccc(Cl)cc1)c1ccc(Cl)c(Br)c1 [Example 6-24, (3R,4R)-4-(3-bromo-4-chlorophenyl)-5-(4-chlorophenyl)-3-ethoxy-N-hydroxypentanamide]",8.1
12,"CCO[C@H](CC(=O)NO)[C@H](Cc1ccc(Cl)cc1)c1ccccc1 [Example 3-1, (3R,4R)-5-(4-chlorophenyl)-3-ethoxy-N-hydroxy-4-phenylpentanamide]",15.5
13,"CO[C@H](CC(=O)NO)[C@H](Cc1ccc(Cl)cc1C)c1ccc(F)cc1 [Example 6-5, (3R,4R)-5-(4-chloro-2-methylphenyl)-4-(4-fluorophenyl)-N-hydroxy-3-methoxypentanamide potassium salt]",3.88
14,"CO[C@H](CC(=O)NO)[C@H](Cc1ccc(Cl)cc1)c1ccc(Cl)c(CN2CCCCC2)c1 [Example 5-2, (3R,4R)-4-(4-chloro-3-(piperidin-1-ylmethyl)phenyl)-5-(4-chlorophenyl)-N-hydroxy-3-methoxypentanamide]",3.7
15,"O=C(C[C@@H](OCCCO)[C@H](Cc1ccc(Cl)cc1)c1ccc(F)cc1F)NO [Example 6-19, (3R,4R)-5-(4-chlorophenyl)-4-(2,4-difluorophenyl)-N-hydroxy-3-(3-hydroxypropoxy)pentanamide]",1.45
16,"CO[C@H](CC(=O)NO)[C@H](Cc1ccc(Cl)cc1)c1ccc(C(=O)N(C)C)cc1 [Example 6-7, 4-((2R,3R)-1-(4-chlorophenyl)-5-(hydroxyamino)-3-methoxy-5-oxopentan-2-yl)-N,N-dimethylbenzamide]",26.2
17,"CO[C@H](CC(=O)NO)[C@H](Cc1ccc(Cl)cc1C)c1ccc(F)cc1F [Example 6-22, (3R,4R)-5-(4-chloro-2-methylphenyl)-4-(2,4-difluorophenyl)-N-hydroxy-3-methoxypentanamide potassium salt]",6.7
18,"CO[C@H](CC(=O)NO)[C@H](Cc1ccc(Cl)cc1C)c1ccc(CN2CCOCC2)cc1F [Example 6-8, (3R,4R)-5-(4-chloro-2-methylphenyl)-4-(2-fluoro-4-(morpholinomethyl)phenyl)-N-hydroxy-3-methoxypentanamide]",45.8
19,"CCO[C@H](CC(=O)NO)[C@H](Cc1ccc(Cl)cc1)c1ccc(CN2CCN(C(=O)OC(C)(C)C)CC2)cc1 [Example 3-17, tert-butyl 4-(4-((2R,3R)-1-(4-chlorophenyl)-3-ethoxy-5-(hydroxyamino)-5-oxopentan-2-yl)benzyl)piperazine-1-carboxylate]",8.5
20,"CCO[C@H](CC(=O)NO)[C@H](Cc1ccc(Cl)cc1)c1ccc(N2CCOCC2)cc1 [Example 3-23, (3R,4R)-5-(4-chlorophenyl)-3-ethoxy-N-hydroxy-4-(4-morpholinophenyl)pentanamide]",10
21,"CCO[C@H](CC(=O)NO)[C@H](Cc1ccc(Cl)cc1)c1ccc(F)cc1 [Example 6-3, (3R,4R)-5-(4-chlorophenyl)-3-ethoxy-4-(4-fluorophenyl)-N-hydroxypentanamide potassium salt]",8.9
22,"CO[C@H](CC(=O)NO)[C@H](Cc1ccc(Cl)cc1)c1ccc(C(=O)N2CCCCC2)cc1 [Example 4-7, (3R,4R)-5-(4-chlorophenyl)-N-hydroxy-3-methoxy-4-(4-(piperidine-1-carbonyl)phenyl)pentanamide]",5.5
23,"CO[C@H](CC(=O)NO)[C@H](Cc1ccc(F)cc1C)c1ccc(Br)cc1 [Example 2-1, (3R,4R)-4-(4-bromophenyl)-5-(4-fluoro-2-methylphenyl)-N-hydroxy-3-methoxypentanamide]",235
24,"CCO[C@H](CC(=O)NO)[C@H](Cc1ccc(Cl)cc1)c1ccc(-c2ccncc2)cc1 [Example 3-30, (3R,4R)-5-(4-chlorophenyl)-3-ethoxy-N-hydroxy-4-(4-(pyridin-4-yl)phenyl)pentanamide]",4.5
25,"NCCCO[C@H](CC(=O)NO)[C@H](Cc1ccc(Cl)cc1)c1ccc(F)cc1F [Example 6-26, (3R,4R)-3-(3-aminopropoxy)-5-(4-chlorophenyl)-4-(2,4-difluorophenyl)-N-hydroxypentanamide]",55000
26,"CCO[C@@H](CC(=O)NO)[C@H](Cc1ccc(Cl)cc1)c1ccc(Br)cc1 [Example 3-7, (3S,4R)-4-(4-bromophenyl)-5-(4-chlorophenyl)-3-ethoxy-N-hydroxypentanamide]",73
27,"CO[C@H](CC(=O)NO)[C@H](Cc1ccc(Cl)cc1)c1ccc(CN2CCCCC2)cc1 [Example 3-20, (3R,4R)-5-(4-chlorophenyl)-N-hydroxy-3-methoxy-4-(4-(piperidin-1-ylmethyl)phenyl)pentanamide]",37
28,"CCO[C@H](CC(=O)NO)[C@H](Cc1ccc(Cl)cc1)c1ccc(N(C)CCO)cc1 [Example 3-21, (3R,4R)-5-(4-chlorophenyl)-3-ethoxy-N-hydroxy-4-(4-((2-hydroxyethyl)(methyl)amino)phenyl)pentanamide]",8.5
29,CCO[C@H](CC(=O)NO)[C@H](Cc1ccc(Cl)cc1)c1ccc(COCOCCOC)cc1 [Example 3-15],30
